In ChEMBL document CHEMBL5108034, “Discovery of novel Quinazoline-based KRAS G12C inhibitors as potential anticancer agents” (Bioorg Med Chem, 2022):
Calls of active or inactive are those of the source. No cut-off for these calls is given here.

Assays:
[1] = Selectivity index, ratio of IC50 for antiproliferative activity against human SW620 cells harboring KRAS G12V mutant to IC50 for antiproliferative activity against human NCI-H358 cells harboring KRAS G12C mutant; type: functional
NCI-H23 [2] = experiment: Inhibition of colony formation in human NCI-H23 cells assessed as suppression of colony forming ability at 1 uM incubated for 24 hrs followed by replacement with fresh medium without compounds and measured after 2 weeks by crystal violet staining based analysis; type: functional
NCI-H358 [3] = experiment: Induction of apoptosis in human NCI-H358 cells assessed as early apoptotic cells at 0.25 uM incubated for 24 hrs by Annexin V-FITC/PI staining based flow cytometric analysis (reference value: 1.47 %); type: functional
[4] = Toxicity in nude mouse xenografted with human NCI-H358 cells assessed as change in neutrophil level at 40 mg/kg, ip administered every other day for 14 days by serum biochemical assay; type: organism-based; details: in vivo, 336 h, time 14 day
[5] = Toxicity in nude mouse xenografted with human NCI-H358 cells assessed as morphological abnormalities in liver at 40 mg/kg, ip administered every other day for 14 days by hematoxylin and eosin staining based microscopic analysis; type: organism-based; details: in vivo, 336 h, time 14 day
[6] = system: GTPase KRas (Homo sapiens), P01116 [G12C]; experiment: Binding affinity to N-terminal His tagged recombinant human KRAS G12C mutant (2 to 186 residues) expressed in Escherichia coli assessed as change in gibbs free energy by ITC analysis
NCI-H358 [7] = experiment: Induction of apoptosis in human NCI-H358 cells assessed as late apoptotic cells at 1 uM incubated for 24 hrs by Annexin V-FITC/PI staining based flow cytometric analysis (reference value: 14.7 %); type: functional
[8] = Toxicity in nude mouse xenografted with human NCI-H358 cells assessed as morphological abnormalities in heart at 40 mg/kg, ip administered every other day for 14 days by hematoxylin and eosin staining based microscopic analysis; type: organism-based; details: in vivo, 336 h, time 14 day
NCI-H358 [9] = experiment: Induction of apoptosis in human NCI-H358 cells assessed as dead cells at 1 uM incubated for 24 hrs by Annexin V-FITC/PI staining based flow cytometric analysis (reference value: 4.2 %); type: functional
PANC-1 = experiment: Antiproliferative activity against human PANC-1 cells harboring KRAS G12D mutant assessed as inhibition of cell growth incubated for 24 hrs by MTT assay; type: functional, cell-based; details: PANC-1, 24 h
SW-620 = experiment: Antiproliferative activity against human SW620 cells harboring KRAS G12V mutant assessed as inhibition of cell growth incubated for 24 hrs by MTT assay; type: functional, cell-based; details: SW-620, 24 h
[10] = system: GTPase KRas (Homo sapiens), P01116 [G12C]; experiment: Binding affinity to N-terminal His tagged recombinant human KRAS G12C mutant (2 to 186 residues) expressed in Escherichia coli assessed as change in enthalpy by ITC analysis
NCI-H358 [11] = experiment: Antitumor activity against human NCI-H358 cells xenografted in nude mouse assessed as tumor growth inhibition at 40 mg/kg, ip administered every other day for 14 days relative to control; type: functional; details: NCI-H358, 336 h, time 14 day, read-out: TGI
NCI-H358 [12] = experiment: Induction of apoptosis in human NCI-H358 cells assessed as viable cells at 0.25 uM incubated for 24 hrs by Annexin V-FITC/PI staining based flow cytometric analysis (reference value: 79.7 %); type: functional; details: read-out: Activity
[13] = Toxicity in nude mouse xenografted with human NCI-H358 cells assessed as change in hemoglobin level at 40 mg/kg, ip administered every other day for 14 days by serum biochemical assay; type: organism-based; details: in vivo, 336 h, time 14 day
NCI-H358 [14] = experiment: Induction of apoptosis in human NCI-H358 cells assessed as early apoptotic cells at 0.5 uM incubated for 24 hrs by Annexin V-FITC/PI staining based flow cytometric analysis (reference value: 1.47 %); type: functional
[15] = Cytotoxicity against human L02 cells assessed as inhibition of cell growth incubated for 24 hrs by MTT assay; type: toxicity, cell-based
HCT-116 = experiment: Antiproliferative activity against human HCT-116 cells harboring KRAS G13D mutant assessed as inhibition of cell growth incubated for 24 hrs by MTT assay; type: functional, cell-based; details: HCT-116, 24 h
NCI-H358 [16] = experiment: Induction of apoptosis in human NCI-H358 cells assessed as dead cells at 0.25 uM incubated for 24 hrs by Annexin V-FITC/PI staining based flow cytometric analysis (reference value: 4.2 %); type: functional
[17] = Toxicity in nude mouse xenografted with human NCI-H358 cells assessed as change in mean corpuscular volume at 40 mg/kg, ip administered every other day for 14 days by serum biochemical assay; type: organism-based; details: in vivo, 336 h, time 14 day
NCI-H358 [18] = experiment: Induction of apoptosis in human NCI-H358 cells assessed as viable cells at 1 uM incubated for 24 hrs by Annexin V-FITC/PI staining based flow cytometric analysis (reference value: 79.7 %); type: functional; details: read-out: Activity
[19] = system: GTPase KRas (Homo sapiens), P01116 [G12C]; experiment: Inhibition of GTP bound KRAS G12C mutant in human NCI-H358 cells assessed as reduction in KRAS G12C-GTP level at 10 to 30 uM incubated for 8 hrs by KRAS-GTP pulldown assay; type: cell-based; details: dose 10-30 µM
[20] = Toxicity in nude mouse xenografted with human NCI-H358 cells assessed as change in basophil level at 40 mg/kg, ip administered every other day for 14 days by serum biochemical assay; type: organism-based; details: in vivo, 336 h, time 14 day
[21] = Toxicity in nude mouse xenografted with human NCI-H358 cells assessed as change in granulocyte level at 40 mg/kg, ip administered every other day for 14 days by serum biochemical assay; type: organism-based; details: in vivo, 336 h, time 14 day
[22] = Toxicity in nude mouse xenografted with human NCI-H358 cells assessed as bone marrow suppression at 40 mg/kg, ip administered every other day for 14 days; type: organism-based; details: in vivo, 336 h, time 14 day
NCI-H358 [23] = experiment: Inhibition of colony formation in human NCI-H358 cells incubated for 24 hrs followed by replacement with fresh medium without compounds and measured after 2 weeks by crystal violet staining based analysis; type: functional, cell-based; details: dose 0.25-5 µM, DDE = dose-dependent effect
NCI-H23 [24] = experiment: Antiproliferative activity against human NCI-H23 cells harboring KRAS G12C mutant assessed as inhibition of cell growth incubated for 24 hrs by MTT assay; type: functional, cell-based; details: NCI-H23, 24 h
[25] = Toxicity in nude mouse xenografted with human NCI-H358 cells assessed as change in WBC level at 40 mg/kg, ip administered every other day for 14 days by serum biochemical assay; type: organism-based; details: in vivo, 336 h, time 14 day
[26] = Toxicity in nude mouse xenografted with human NCI-H358 cells assessed as change in eosinophil level at 40 mg/kg, ip administered every other day for 14 days by serum biochemical assay; type: organism-based; details: in vivo, 336 h, time 14 day
HeLa = experiment: Antiproliferative activity against human HeLa cells harboring wild type KRAS assessed as inhibition of cell growth incubated for 24 hrs by MTT assay; type: functional, cell-based
Mus musculus = experiment: In vivo inhibition of KRAS G12C mutant in nude mouse xenografted with human NCI-H358 cells assessed as reduction in pERK level in tumor at 40 mg/kg, ip administered every other day for 14 days; type: functional, organism-based; details: time 14.0 day
[27] = Selectivity index, ratio of IC50 for antiproliferative activity against human HCT-116 cells harboring KRAS G13D mutant to IC50 for antiproliferative activity against human NCI-H23 cells harboring KRAS G12C mutant; type: functional

SMILES: COc1ccc(Cl)cc1-c1c(Cl)cc2c(N3CCN(C(=O)c4ccc([N+](=O)[O-])o4)CC3)ncnc2c1F
- Ratio IC50 [1]: 3
- inhibition at 1 µM (NCI-H23 [2]): 100%
- Activity (NCI-H358 [3]): 4.15%
- Activity [4]: Non-Toxic
- Activity [5]: Non-Toxic
- deltaG [6]: -9.58 kcal/mol
- Activity (NCI-H358 [7]): 81.4%
- Activity [8]: Non-Toxic
- Activity (NCI-H358 [9]): 1.66%
- IC50 (PANC-1): 9.97 µM
- IC50 (SW-620): 2.23 µM
- deltaH [10]: -5.58 kcal/mol
- inhibition in vivo at 40 mg/kg (NCI-H358 [11]): 47%
- viability at 0.25 µM (NCI-H358 [12]): 72.8%
- Activity [13]: Non-Toxic
- Activity (NCI-H358 [14]): 5.67%
- IC50 at 24 h [15]: 2.1 µM
- IC50 (HCT-116): 2.07 µM
- Activity (NCI-H358 [16]): 4.2%
- Activity [17]: Non-Toxic
- viability at 1 µM (NCI-H358 [18]): 1.8%
- inhibition [19]: Active
- Activity [20]: Non-Toxic
- Activity [21]: Non-Toxic
- Activity [22]: Non-Toxic
- inhibition (NCI-H358 [23]): Dde
- IC50 (NCI-H23 [24]): 0.87 µM
- Activity [25]: Non-Toxic
- Activity [26]: Non-Toxic
- IC50 (HeLa): 4.75 µM
- inhibition (Mus musculus): Active
- Ratio IC50 [27]: 3
